{"source": "patent US11110078B2", "about": "“Composition and method for treatment of diseases associated with central nervous system inflammation” (AMRITA VISHWA VIDYAPEETHAM, priority 2019, dated 2021)", "key": {"[1]": {"assay": "In vivo toxicity: serum AST and ALT liver enzymes", "design": "species or system mice", "settings": "3, 10 and 25 days", "procedure": "In vitro efficacy of GMFBI.1 compound in down regulating the expression of both proinflammatory mediators p38MAPK and NFκB under the control of GMF-β and its non-toxic nature at lower concentrations was first evaluated. The levels of aspartate amino transferase (AST) and alanine amino transferase (ALT) were measured spectrophotometrically from serum of GMFBI.1 compound administered animals to monitor its liver function as shown in FIG. 6A and FIG. 6B respectively. […] Grey shaded region denotes the normal range of AST and ALT enzymes in mice in FIG. 6A and FIG. 6B respectively.\nThe GMFBI.1 compound distribution in various compartments (organs, plasma & urine) of normal healthy mice at different time intervals (30 minutes, 1, 2, 3 and 6 hours) and its distribution profile (n=3 per group), is shown in FIG. 6C. […] Further, again 300 μg of GMFBI.1 was injected in EAE animals and the blood brain barrier is compromised as in MS patients. […] Both AST and ALT activity was measured at 3, 10 and 25 days."}, "[2]": {"assay": "Bio-distribution in compartments of normal healthy mice", "assay_type": "in vivo, C57BL/6 mice", "settings": "300 μg intraperitoneal", "procedure": "(§1) The GMFBI.1 compound distribution in various compartments (organs, plasma & urine) of normal healthy mice at different time intervals (30 minutes, 1, 2, 3 and 6 hours) and its distribution profile (n=3 per group), is shown in FIG. 6C. […] Further, again 300 μg of GMFBI.1 was injected in EAE animals and the blood brain barrier is compromised as in MS patients. […] Based on these observations, mice was injected twice daily with 300 μg/mice (12 mg/Kg) GMFBI.1 for 25 days. Both AST and ALT activity was measured at 3, 10 and 25 days."}, "p38MAPK": {"test_system": "p38MAPK", "assay": "p38MAPK expression in LPS stimulated cultured astrocytes", "assay_type": "cell-based", "settings": "500 ng/mL, n=3"}, "EAE induced animals [3]": {"test_system": "EAE induced animals", "assay": "Leukocyte infiltrates in brain and spinal cord of EAE animals by H and E staining", "assay_type": "in vivo, C57BL/6 mice", "settings": "25 days after treatment, versus saline treated EAE controls, P<0.05, n=3", "excerpt": "(§2) Animals were sacrificed 25 days after GMFBI.1 compound treatment and the levels of leukocyte infiltrates in brain as shown in FIG. 7C and spinal cord as shown in FIG. 7D were compared against EAE control by Haematoxylin and Eosin(H and E) staining."}, "EAE induced animals [4]": {"test_system": "EAE induced animals", "assay": "Reversal of EAE: clinical scores in paralyzed EAE animals", "assay_type": "in vivo, C57BL/6 mice", "procedure": "(§3) Treatment was given to a group of animals with average clinical score of 3 for a period of 2 weeks. EAE induced animals were injected at clinical score 3.5 with GMFBI.1 compound 300 μg/mice (12 mg/Kg) twice daily at day 13.EAE clinical scores of C57BL/6 mice treated with GMFBI.1 compound ([…] i.p twice daily) and controls with saline (n=5 per group) is shown in FIG. 7A.\nas §2"}, "NFκB": {"test_system": "NFκB", "assay": "NFκB expression in LPS stimulated cultured astrocytes", "assay_type": "cell-based", "settings": "500 ng/mL, n=3"}, "[5]": {"test_system": "proinflammatory and anti-inflammatory cytokines", "assay": "Cytokine levels in treated EAE animals (relative fold change)", "assay_type": "in vivo, C57BL/6 mice", "excerpt": "From FIG. 7G, it is observed that down regulation of these inflammatory cytokines has potential significance in the therapy and increased levels of anti-inflammatory cytokines particularly IL-10 and TGF beta levels. In MS patients, the levels of TGF beta and IL-10 are low compared to healthy individuals and significant down regulation of IL-17 are promising as IL-17 drives the inflammation in EAE and MS disease."}, "[6]": {"assay": "Distribution into brain of EAE mice", "assay_type": "in vivo", "procedure": "as §1, §3"}, "GMF-β": {"target": "GMF-β (Homo sapiens, UniProt P60983)", "sequence (P60983 2-142 limits assumed)": "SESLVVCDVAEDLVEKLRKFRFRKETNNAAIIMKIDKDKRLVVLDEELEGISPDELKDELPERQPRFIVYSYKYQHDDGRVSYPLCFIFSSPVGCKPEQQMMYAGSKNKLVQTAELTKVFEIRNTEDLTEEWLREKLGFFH", "assay": "In vitro phosphorylation of purified GMF-β by PKA", "assay_type": "biochemical", "settings": "250 ng/mL GMFBI.1, 1 μg/mL GMF-β, versus lane without compound", "procedure": "With the in silico proof of concept showing high binding efficacy to GMF-β phosphorylation sites, in vitro phosphorylation studies using PKA (PKA phosphorylation results in activation of the downstream proinflammatory cascade) and purified GMF-β in presence and absence of GMFBI.1 compound is performed. […] In FIG. 4B, “+” sign indicates experiment with 1 μg/mL GMF-β and PKA, “−” indicates control reaction in the absence of PKA and “GMFBI.1” indicates phosphorylation level on GMF-β in the presence of small molecule GMFBI.1 (250 ng/mL)."}, "astrocytes": {"test_system": "astrocytes", "assay": "MTT cell viability assay on cultured astrocytes", "assay_type": "cell-based", "settings": "48 hours incubation, 0-3 mg/mL tested", "procedure": "In order to test whether virtually screened GMFBI.1 drug like compound is toxic to the cells, different concentrations (0-3 mg/mL) of GMFBI.1 on astrocytes were tested. Test includes performing MTT cell viability assay following 48 hours of incubation with GMFBI.1. […] NC represents […] with 10% Triton X-100."}, "[7]": {"settings": "300 μg/mice twice daily for 25 days"}, "[8]": {"settings": "versus untreated EAE controls, n=3"}}, "data": [{"smiles": "OCc1cccc2[nH]ncc12", "note": "[GMFBI.1, (1-H Indazol-4-yl)-methanol]", "values": [{"measurement": "ALT activity level versus control", "setting": "[1]; [7]", "result": "remained similar to that of control"}, {"measurement": "AST activity level versus control", "setting": "[1]; [7]", "result": "remained similar to that of control"}, {"measurement": "serum ALT level versus saline controls", "setting": "[1]; 14 mg/kg twice daily", "result": "No significant difference"}, {"measurement": "serum AST level versus saline controls", "setting": "[1]; 14 mg/kg twice daily", "result": "No significant difference"}, {"measurement": "amount of compound in liver within three hours", "setting": "[2]", "result": "significantly reduced compared to 2 hrs"}, {"measurement": "compound in brain of healthy mice at any time period", "setting": "[2]", "result": "no GMFBI.1 compound was detected in the brains"}, {"measurement": "compound in kidney within three hours", "setting": "[2]", "result": "transiently seen in kidney"}, {"measurement": "compound in plasma at 30 mins to 1 hr", "setting": "[2]", "result": "most of the GMFBI.1 compound remained in the plasma"}, {"measurement": "compound in plasma by two hours", "setting": "[2]", "result": "no GMFBI.1 compound could be detected in plasma"}, {"measurement": "compound in urine within three hours", "setting": "[2]", "result": "found majorly in urine"}, {"measurement": "free compound in organs by 6 hrs", "setting": "[2]", "result": "no free GMFBI.1 compound in any of the organs were detected"}, {"measurement": "p38MAPK protein expression", "setting": "p38MAPK", "result": "statistically significant suppression"}, {"measurement": "number of cellular infiltrates in brain", "setting": "EAE induced animals [3]", "result": "significant reduction in the number of cellular infiltrates"}, {"measurement": "number of cellular infiltrates in spinal cord", "setting": "EAE induced animals [3]", "result": "significant reduction in the number of cellular infiltrates"}, {"measurement": "EAE clinical score by day 18", "setting": "EAE induced animals [4]; 300 μg/mice (12 mg/Kg; also printed 14 mg/kg i.p) twice daily from day 13, n=5", "result": "the clinical score started to improve"}, {"measurement": "clinical score versus control", "setting": "EAE induced animals [4]; from 7th day after treatment, P<0.001", "result": "Significant reduction in the clinical score"}, {"measurement": "body weight over time versus control animals", "setting": "EAE induced animals [4]; treated EAE animals", "result": "significant weight gain"}, {"measurement": "EAE clinical score by day 40", "setting": "EAE induced animals [4]; twice daily i.p. from day 13", "result": "very low clinical score"}, {"measurement": "locomotor motion by day 30", "setting": "EAE induced animals [4]; twice daily i.p. from day 13", "result": "able to show improvements in locomotor motion and was able to walk"}, {"measurement": "NFκB protein expression", "setting": "NFκB", "result": "statistically significant suppression"}, {"measurement": "IL1-β level", "setting": "[5]; following treatment", "result": "down regulated significantly"}, {"measurement": "GMCSF level", "setting": "[5]; versus EAE controls, n=3", "result": "significant decrease"}, {"measurement": "IFN-γ level", "setting": "[5]; versus EAE controls, n=3", "result": "significant decrease"}, {"measurement": "IL-6 level", "setting": "[5]; versus EAE controls, n=3", "result": "significant decrease"}, {"measurement": "IL-17A level", "setting": "[5]; versus EAE controls, n=3", "result": "significant decrease"}, {"measurement": "TNF-α level", "setting": "[5]; versus EAE controls, n=3", "result": "significant decrease"}, {"measurement": "IL-10 level (anti-inflammatory)", "setting": "[5]; [8]", "result": "elevated significantly"}, {"measurement": "TGF-β level (anti-inflammatory)", "setting": "[5]; [8]", "result": "elevated significantly"}, {"measurement": "amount of compound in brain by 3 hrs", "setting": "[6]; 300 μg injected, EAE animals", "result": "≤ 15", "unit": "µg"}, {"measurement": "compound in brain by 6 hrs", "setting": "[6]; 300 μg injected, EAE animals", "result": "no GMFBI.1 may be detected in the brain"}, {"measurement": "time by which compound is detected in brain", "setting": "[6]; 300 μg injected, EAE animals", "result": "≤ 2", "unit": "h"}, {"measurement": "blood brain barrier crossing", "setting": "[6]; EAE mice", "result": "able to cross the blood brain barrier"}, {"measurement": "retention in the system", "setting": "[6]; EAE mice", "result": "at least three hours"}, {"measurement": "phosphorylation of GMF-β by PKA", "setting": "GMF-β", "result": "several fold decrease in phosphorylation"}, {"measurement": "concentration up to which astrocytes remained viable", "setting": "astrocytes", "result": "≤ 1000", "unit": "µg/mL"}]}]}
